Where “and” joins values, the source holds several entries; their conditions need not be identical. Identical values can stand only once. Like-named read-outs stand apart in the source and are kept apart here.
How the values were obtained:
[1] = in vivo
[2] = pH 7
guinea pig ileum = experiment: tissue or blood; format: cell-based; details: for EC50: Cavia porcellus, read-out: ED50
Human Eyes [3] = details: in vivo
Mice Eyes = details: mouse, in vivo
Human Eyes [4] = details: in vivo; remark: listed apart in the source

## CC[C@@H]1C(=O)OC[C@@H]1Cc1cncn1C [Pilocarpine]
[1]
  Intraoccular pressure: 31 mmHg and 33 mmHg and 24 mmHg and 25 mmHg and 26 mmHg and 29 mmHg and 28 mmHg

## CC(=O)OC1CN2CCC1CC2 (single isomer, unassigned; (+)) [(+) 3-acetoxy quinuclidine]
[2]
  stability of solutions on storage: no perceptible deterioration

## CC(=O)OC1CN2CCC1CC2 (racemic) [(±) H Cl, 3-acetoxy-quinuclidine, reference compound]
Guinea pig ileum
  EPMR (Equipotent molar ratio): 20
  EC50: 700 nM

## CC(=O)OC1CN2CCC1CC2 (single isomer, unassigned; (+)) [(+) H Cl, (+) 3-acetoxy quinuclidine]
Human Eyes [3]
  Pupil Diameter: 3.5 mm
Guinea pig ileum
  ACh-like agonist strength: strongest agonist
  Blockade of agonist effect by atropine: blocked
  EPMR (Equipotent molar ratio): 25
Mice Eyes
  Time after which acute miosis developed: 4 min
Human Eyes [4]
  Pupil Diam.: 4.5 mm and 3.0 mm and 3.5 mm

## CC(=O)OCC[N+](C)(C)C [Acetylcholine, reference compound]
Guinea pig ileum
  EC50: 30 nM

## CC(=O)OC1CN2CCC1CC2 (single isomer, unassigned; (-)) [(-) H Cl]
Guinea pig ileum
  EPMR (Equipotent molar ratio): 100
Mice Eyes
  Reversal of Mydriasis Time: > 15 min
Human Eyes [4]
  Pupil Diameter: 4.5 mm and 4.0 mm and 3.5 mm and 3.7 mm and 3.0 mm and 3.2 mm and 3.6 mm

Source: patent publication US3997543A (priority 1974, dated 1976)
